The record followed here is ChEMBL document CHEMBL4028801, “A multifactorial approach to hepatobiliary transporter assessment enables improved therapeutic compound development” (Toxicol Sci, 2013).

Structures are written as SMILES. Some results are limits rather than exact numbers.

The nature of series [1]: AUC in human at 800 mg, po TID after 8 hrs. It counts as ADME, organism-based. On the set-up: dose 800 mg, time < 8 hr, route oral. The following applies: in vivo.
The nature of series [2]: Ratio of drug concentration at steady state in human at 800 mg, po TID after 8 hrs to IC50 for human MRP3 overexpressed in Sf9 insect cells. It is filed as ADME, organism-based. The conditions noted are these: in vivo.
Series [3] concerns the target ATP-binding cassette sub-family C member 2 (Homo sapiens, UniProt Q92887). In words: Inhibition of human MRP2 overexpressed in Sf9 cell membrane vesicles assessed as uptake of [3H]-estradiol-17beta-D-glucuronide in presence of ATP and GSH measured after 20 mins by membrane vesicle transport assay.
Series [4] has as its target ATP-binding cassette sub-family C member 3 (Homo sapiens, UniProt O15438). Nature of the series: Inhibition of human MRP3 overexpressed in Sf9 insect cell membrane vesicles assessed as uptake of [3H]-estradiol-17beta-D-glucuronide in presence of ATP and GSH measured after 10 mins by membrane vesicle transport assay. It is filed as ADME, cell-based.
Series [5] can be described thus: Drug concentration at steady state in human at 800 mg, po TID after 8 hrs. It counts as ADME, organism-based. The conditions noted are these: in vivo, read-out: Css.
Series [6] has as its target T1, ATP-binding cassette sub-family C member 4 (Homo sapiens, UniProt O15439).
T1 sequence (O15439 whole entry): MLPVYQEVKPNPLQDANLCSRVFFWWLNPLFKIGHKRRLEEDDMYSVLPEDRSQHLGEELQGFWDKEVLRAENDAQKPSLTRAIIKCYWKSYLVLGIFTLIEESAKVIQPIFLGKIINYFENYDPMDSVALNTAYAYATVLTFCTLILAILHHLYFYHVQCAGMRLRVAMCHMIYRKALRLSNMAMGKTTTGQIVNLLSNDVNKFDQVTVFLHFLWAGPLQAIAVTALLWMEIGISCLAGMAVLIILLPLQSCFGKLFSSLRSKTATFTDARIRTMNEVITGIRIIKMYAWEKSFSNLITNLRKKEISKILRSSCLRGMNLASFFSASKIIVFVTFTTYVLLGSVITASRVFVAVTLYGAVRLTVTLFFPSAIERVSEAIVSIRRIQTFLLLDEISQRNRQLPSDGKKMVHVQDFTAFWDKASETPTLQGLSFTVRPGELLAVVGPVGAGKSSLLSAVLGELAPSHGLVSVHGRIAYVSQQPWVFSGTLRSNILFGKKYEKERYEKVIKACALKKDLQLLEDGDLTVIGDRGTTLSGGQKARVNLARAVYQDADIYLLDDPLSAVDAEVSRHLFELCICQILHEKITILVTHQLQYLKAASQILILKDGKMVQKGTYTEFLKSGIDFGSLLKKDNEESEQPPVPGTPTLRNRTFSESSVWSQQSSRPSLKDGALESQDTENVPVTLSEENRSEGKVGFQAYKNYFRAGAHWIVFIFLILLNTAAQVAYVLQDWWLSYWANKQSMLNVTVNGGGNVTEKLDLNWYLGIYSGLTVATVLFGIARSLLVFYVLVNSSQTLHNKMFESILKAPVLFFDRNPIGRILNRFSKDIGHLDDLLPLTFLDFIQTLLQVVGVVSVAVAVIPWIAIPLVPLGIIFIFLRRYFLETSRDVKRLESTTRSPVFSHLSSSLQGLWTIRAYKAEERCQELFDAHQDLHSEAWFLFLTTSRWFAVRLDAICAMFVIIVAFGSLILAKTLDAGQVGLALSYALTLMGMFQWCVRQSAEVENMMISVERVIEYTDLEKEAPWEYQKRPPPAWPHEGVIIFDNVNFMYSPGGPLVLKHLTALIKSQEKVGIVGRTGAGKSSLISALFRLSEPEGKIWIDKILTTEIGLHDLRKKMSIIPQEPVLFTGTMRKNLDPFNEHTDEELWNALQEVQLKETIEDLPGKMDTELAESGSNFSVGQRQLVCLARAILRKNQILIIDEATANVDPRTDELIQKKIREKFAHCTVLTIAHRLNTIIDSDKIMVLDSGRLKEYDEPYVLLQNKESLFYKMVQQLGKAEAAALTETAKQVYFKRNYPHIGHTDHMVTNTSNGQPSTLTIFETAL
In words: Inhibition of human MRP4 overexpressed in Sf9 cell membrane vesicles assessed as uptake of [3H]-estradiol-17beta-D-glucuronide in presence of ATP and GSH measured after 20 mins by membrane vesicle transport assay. It is filed as ADME, cell-based.

The nature of series [7]: Ratio of drug concentration at steady state in human at 800 mg, po TID after 8 hrs to IC50 for human BSEP overexpressed in Sf9 insect cells. It counts as ADME, organism-based. The following applies: in vivo.
Another series has as its target Bile salt export pump (Homo sapiens, UniProt O95342). In words: Inhibition of human BSEP overexpressed in Sf9 cell membrane vesicles assessed as uptake of [3H]-taurocholate in presence of ATP measured after 15 to 20 mins by membrane vesicle transport assay. It counts as ADME, cell-based.
The nature of series [8]: Ratio of drug concentration at steady state in human at 100 to 300 mg, po QD after 24 hrs to IC50 for human MRP3 overexpressed in Sf9 insect cells. It counts as ADME, organism-based. The conditions noted are these: in vivo.
Series [9] is described as follows: AUC in human at 100 to 300 mg, po QD after 24 hrs. It is filed as ADME, organism-based. The following applies: in vivo.
A short description of series [10]: Ratio of drug concentration at steady state in human at 100 to 300 mg, po QD after 24 hrs to IC50 for human MRP2 overexpressed in Sf9 insect cells. It is filed as ADME, organism-based. The conditions noted are these: in vivo.
Series [11] in a line: Ratio of drug concentration at steady state in human at 100 to 300 mg, po QD after 24 hrs to IC50 for human BSEP overexpressed in Sf9 insect cells. The following applies: in vivo. It counts as ADME, organism-based.
The nature of series [12]: Drug concentration at steady state in human at 100 to 300 mg, po QD after 24 hrs. It counts as ADME, organism-based. The following applies: in vivo, read-out: Css.
A short description of series [13]: Ratio of drug concentration at steady state in human at 80 to 600 mg, po QD after 24 hrs to IC50 for human BSEP overexpressed in Sf9 insect cells. The following applies: in vivo. It is filed as ADME, organism-based.
A short description of series [14]: Ratio of drug concentration at steady state in human at 80 to 600 mg, po QD after 24 hrs to IC50 for human MRP4 overexpressed in Sf9 insect cells. It counts as ADME, organism-based. The conditions noted are these: in vivo.
The nature of series [15]: Drug concentration at steady state in human at 80 to 600 mg, po QD after 24 hrs. It is filed as ADME, organism-based. The following applies: in vivo, read-out: Css.
Series [16] in a line: AUC in human at 80 to 600 mg, po QD after 24 hrs. It is filed as ADME, organism-based. The following applies: in vivo.
Series [17] in a line: Ratio of drug concentration at steady state in human at 150 to 600 mg, iv QD after 24 hrs to IC50 for human BSEP overexpressed in Sf9 insect cells. The following applies: in vivo. It counts as ADME, organism-based.
The nature of series [18]: AUC in human at 150 to 600 mg, iv QD after 24 hrs. It counts as ADME, organism-based. The following applies: in vivo.
Series [19] in a line: Drug concentration at steady state in human at 150 to 600 mg, iv QD after 24 hrs. The following applies: in vivo, read-out: Css. It counts as ADME, organism-based.
Series [20] in a line: Ratio of drug concentration at steady state in human at 150 to 600 mg, iv QD after 24 hrs to IC50 for human MRP3 overexpressed in Sf9 insect cells. It counts as ADME, organism-based. The following applies: in vivo.
Series [21] can be described thus: Ratio of drug concentration at steady state in human at 150 to 600 mg, iv QD after 24 hrs to IC50 for human MRP2 overexpressed in Sf9 insect cells. The conditions noted are these: in vivo. It is filed as ADME, organism-based.
Series [22] in a line: Ratio of drug concentration at steady state in human at 150 to 600 mg, iv QD after 24 hrs to IC50 for human MRP4 overexpressed in Sf9 insect cells. It counts as ADME, organism-based. The following applies: in vivo.
A short description of series [23]: Drug concentration at steady state in human at 400 to 1200 mg, po TID after 8 hrs. The conditions noted are these: in vivo, read-out: Css. It counts as ADME, organism-based.
Series [24] in a line: AUC in human at 400 to 1200 mg, po TID after 8 hrs. It is filed as ADME, organism-based. The conditions noted are these: in vivo.

ATP-binding cassette sub-family C member 2, sequence (Q92887 whole entry): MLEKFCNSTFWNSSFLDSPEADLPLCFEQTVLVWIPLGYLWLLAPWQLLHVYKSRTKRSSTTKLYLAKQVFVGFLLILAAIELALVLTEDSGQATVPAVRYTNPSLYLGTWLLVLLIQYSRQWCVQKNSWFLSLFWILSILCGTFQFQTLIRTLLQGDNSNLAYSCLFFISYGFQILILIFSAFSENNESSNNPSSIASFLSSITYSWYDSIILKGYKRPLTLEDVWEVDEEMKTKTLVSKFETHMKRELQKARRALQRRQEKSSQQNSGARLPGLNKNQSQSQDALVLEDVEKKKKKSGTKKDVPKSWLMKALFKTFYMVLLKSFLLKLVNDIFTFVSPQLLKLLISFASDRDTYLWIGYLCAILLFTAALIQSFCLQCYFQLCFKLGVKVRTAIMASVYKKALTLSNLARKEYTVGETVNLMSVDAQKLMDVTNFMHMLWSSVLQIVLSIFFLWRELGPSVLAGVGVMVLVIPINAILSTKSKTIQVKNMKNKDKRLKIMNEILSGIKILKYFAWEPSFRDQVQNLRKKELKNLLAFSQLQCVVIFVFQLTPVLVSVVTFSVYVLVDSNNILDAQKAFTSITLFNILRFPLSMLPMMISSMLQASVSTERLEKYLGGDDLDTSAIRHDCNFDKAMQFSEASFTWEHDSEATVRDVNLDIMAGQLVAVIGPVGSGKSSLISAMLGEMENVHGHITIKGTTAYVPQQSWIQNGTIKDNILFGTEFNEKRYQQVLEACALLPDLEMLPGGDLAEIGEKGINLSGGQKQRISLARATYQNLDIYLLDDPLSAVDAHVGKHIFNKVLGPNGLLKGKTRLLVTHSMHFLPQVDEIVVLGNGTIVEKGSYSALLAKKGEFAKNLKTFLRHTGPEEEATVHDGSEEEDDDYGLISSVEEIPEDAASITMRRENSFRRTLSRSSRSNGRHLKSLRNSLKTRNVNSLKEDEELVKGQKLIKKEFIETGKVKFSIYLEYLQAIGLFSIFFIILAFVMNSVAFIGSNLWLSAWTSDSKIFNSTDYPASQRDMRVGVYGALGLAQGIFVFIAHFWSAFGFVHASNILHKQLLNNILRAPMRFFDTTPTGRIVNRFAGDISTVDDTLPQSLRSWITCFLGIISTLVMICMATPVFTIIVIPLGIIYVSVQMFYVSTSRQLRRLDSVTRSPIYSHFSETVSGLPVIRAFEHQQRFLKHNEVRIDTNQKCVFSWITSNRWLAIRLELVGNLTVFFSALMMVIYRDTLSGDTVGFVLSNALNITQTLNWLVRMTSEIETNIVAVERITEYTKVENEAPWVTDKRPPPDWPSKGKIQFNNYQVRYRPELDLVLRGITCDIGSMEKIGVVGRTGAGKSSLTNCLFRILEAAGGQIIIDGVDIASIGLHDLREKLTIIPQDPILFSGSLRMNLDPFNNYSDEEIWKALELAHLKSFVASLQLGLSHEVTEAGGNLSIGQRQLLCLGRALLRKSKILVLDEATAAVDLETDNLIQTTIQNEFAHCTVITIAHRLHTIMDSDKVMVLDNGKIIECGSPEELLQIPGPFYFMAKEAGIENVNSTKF
ATP-binding cassette sub-family C member 3, sequence (O15438 whole entry): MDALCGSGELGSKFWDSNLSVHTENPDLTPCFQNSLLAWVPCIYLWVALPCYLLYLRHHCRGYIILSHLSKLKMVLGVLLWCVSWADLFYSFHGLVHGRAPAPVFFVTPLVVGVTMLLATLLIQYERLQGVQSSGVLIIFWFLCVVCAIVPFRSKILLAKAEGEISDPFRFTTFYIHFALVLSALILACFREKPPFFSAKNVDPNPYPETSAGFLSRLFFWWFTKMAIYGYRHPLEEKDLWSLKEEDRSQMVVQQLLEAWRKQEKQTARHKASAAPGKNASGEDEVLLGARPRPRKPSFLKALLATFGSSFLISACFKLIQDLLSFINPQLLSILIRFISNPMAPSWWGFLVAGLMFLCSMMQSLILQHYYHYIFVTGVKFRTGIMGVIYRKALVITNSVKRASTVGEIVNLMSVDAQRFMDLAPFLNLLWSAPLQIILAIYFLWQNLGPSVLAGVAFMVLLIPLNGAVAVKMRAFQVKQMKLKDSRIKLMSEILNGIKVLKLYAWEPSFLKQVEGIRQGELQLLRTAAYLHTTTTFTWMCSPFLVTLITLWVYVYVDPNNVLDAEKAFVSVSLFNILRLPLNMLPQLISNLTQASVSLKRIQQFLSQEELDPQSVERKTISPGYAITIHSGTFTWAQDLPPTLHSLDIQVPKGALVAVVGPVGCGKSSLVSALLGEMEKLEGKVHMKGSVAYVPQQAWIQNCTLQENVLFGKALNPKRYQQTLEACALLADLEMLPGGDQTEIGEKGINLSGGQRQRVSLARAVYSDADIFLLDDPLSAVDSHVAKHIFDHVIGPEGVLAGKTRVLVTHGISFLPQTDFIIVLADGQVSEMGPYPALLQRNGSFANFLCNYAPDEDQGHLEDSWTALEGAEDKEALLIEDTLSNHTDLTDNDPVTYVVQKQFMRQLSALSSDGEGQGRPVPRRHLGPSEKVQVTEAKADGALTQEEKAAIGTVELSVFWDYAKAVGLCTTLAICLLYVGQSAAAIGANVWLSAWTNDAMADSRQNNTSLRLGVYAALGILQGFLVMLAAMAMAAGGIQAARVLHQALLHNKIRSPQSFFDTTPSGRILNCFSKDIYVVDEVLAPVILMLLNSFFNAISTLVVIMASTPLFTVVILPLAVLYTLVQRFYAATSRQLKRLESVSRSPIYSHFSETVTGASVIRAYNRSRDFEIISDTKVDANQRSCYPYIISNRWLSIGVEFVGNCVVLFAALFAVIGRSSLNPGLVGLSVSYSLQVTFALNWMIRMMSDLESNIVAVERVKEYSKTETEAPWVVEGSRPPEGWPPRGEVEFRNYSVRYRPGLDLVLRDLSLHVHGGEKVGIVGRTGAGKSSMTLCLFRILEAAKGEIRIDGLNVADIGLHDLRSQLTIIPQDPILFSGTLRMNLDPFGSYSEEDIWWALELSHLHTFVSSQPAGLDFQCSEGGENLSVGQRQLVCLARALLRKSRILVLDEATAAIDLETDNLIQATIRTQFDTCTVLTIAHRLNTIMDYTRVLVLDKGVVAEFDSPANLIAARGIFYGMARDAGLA
Bile salt export pump, sequence (O95342 whole entry): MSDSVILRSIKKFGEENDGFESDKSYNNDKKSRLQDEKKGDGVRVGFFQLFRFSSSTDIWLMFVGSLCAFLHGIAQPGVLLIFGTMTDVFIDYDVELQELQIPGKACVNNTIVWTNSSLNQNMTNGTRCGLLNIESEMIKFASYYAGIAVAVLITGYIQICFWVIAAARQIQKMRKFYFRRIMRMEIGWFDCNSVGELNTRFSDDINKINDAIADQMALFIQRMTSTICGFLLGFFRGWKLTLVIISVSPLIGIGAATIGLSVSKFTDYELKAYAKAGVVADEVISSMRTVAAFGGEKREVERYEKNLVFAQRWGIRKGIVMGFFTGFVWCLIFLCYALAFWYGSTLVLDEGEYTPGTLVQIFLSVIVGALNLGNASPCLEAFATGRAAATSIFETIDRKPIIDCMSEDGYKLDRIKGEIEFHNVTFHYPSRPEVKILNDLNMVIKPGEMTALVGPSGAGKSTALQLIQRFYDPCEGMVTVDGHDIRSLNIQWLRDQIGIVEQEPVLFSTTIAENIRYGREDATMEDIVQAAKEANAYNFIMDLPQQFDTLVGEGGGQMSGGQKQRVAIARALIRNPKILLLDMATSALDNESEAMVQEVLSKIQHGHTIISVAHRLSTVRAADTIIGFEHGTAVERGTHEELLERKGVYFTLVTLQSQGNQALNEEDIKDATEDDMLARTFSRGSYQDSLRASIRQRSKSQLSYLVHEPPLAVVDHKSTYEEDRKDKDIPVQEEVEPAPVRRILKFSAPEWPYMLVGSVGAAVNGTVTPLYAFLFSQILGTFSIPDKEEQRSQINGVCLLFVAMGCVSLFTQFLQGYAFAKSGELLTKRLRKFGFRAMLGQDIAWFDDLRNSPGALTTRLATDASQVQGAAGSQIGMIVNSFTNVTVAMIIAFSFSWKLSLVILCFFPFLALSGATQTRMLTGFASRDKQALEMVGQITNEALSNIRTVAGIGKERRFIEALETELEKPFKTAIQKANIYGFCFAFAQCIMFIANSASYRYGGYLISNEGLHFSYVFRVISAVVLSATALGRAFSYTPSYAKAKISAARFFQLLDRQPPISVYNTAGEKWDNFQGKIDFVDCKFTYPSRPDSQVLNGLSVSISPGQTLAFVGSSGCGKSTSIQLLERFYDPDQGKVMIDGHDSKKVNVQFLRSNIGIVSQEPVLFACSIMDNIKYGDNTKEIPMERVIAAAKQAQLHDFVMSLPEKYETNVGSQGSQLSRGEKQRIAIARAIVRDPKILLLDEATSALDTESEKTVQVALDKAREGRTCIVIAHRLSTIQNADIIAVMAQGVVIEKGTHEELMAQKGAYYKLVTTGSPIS

For `CC(C)(C)NC(=O)[C@@H]1CN(Cc2cccnc2)CCN1C[C@@H](O)C[C@@H](Cc1ccccc1)C(=O)N[C@H]1c2ccccc2C[C@H]1O.O`, the AUC at 8 h in series [1] came to 45.1 µM·h. Further, the Ratio in series [2] is given as 0.068; in series [7] it was 0.266. Further, the values for the IC50 in series [3], in series [4] and in series [6] were greater than 133 µM, 83 µM and greater than 133 µM, respectively. In addition, the concentration at 8 h in series [5] stood at 5.64 µM.
In the case of `Cc1cc2c(cc1CC(=O)c1sccc1S(=O)(=O)Nc1onc(C)c1Cl)OCO2` [SITAXENTAN], the values for the IC50 (on Bile salt export pump; in series [4]; in series [6]) were 12.6 µM, 45.4 µM and 28.4 µM, respectively. The values for the Ratio in series [8], in series [10] and in [11] were 0.07, 0.044 and 0.158, respectively. The AUC at 24 h in [9] was found to be 47.9 µM·h. Also, the concentration at 24 h in series [12] was 2 µM.
For the compound `COc1ccc(/C=C/C(=O)Nc2ccccc2C(=O)O)cc1OC`, the IC50 on Bile salt export pump is 41.5 µM; in series [3] it was greater than 133 µM; in [4] it was greater than 133 µM; in series [6], 1 µM. Further, the values for the Ratio in series [13] and in series [14] were 0.286 and 11.849, respectively. Besides, the concentration at 24 h in series [15] stood at 11.8 µM. For the same compound, the area under the curve (AUC) at 24 h in series [16] was found to be 284 µM·h.
As for `CO[C@H]1/C=C/O[C@@]2(C)Oc3c(C)c(O)c4c(O)c(c(/C=N/N5CCN(C)CC5)c(O)c4c3C2=O)NC(=O)/C(C)=C\C=C\[C@H](C)[C@H](O)[C@@H](C)[C@@H](O)[C@@H](C)[C@H](OC(C)=O)[C@@H]1C` [RIFAMPIN], the half-maximal inhibitory concentration (IC50) came out at 53 µM in [3], 69 µM in series [4] and 41.9 µM in series [6]. Also, the Ratio was determined as 0.147 in series [17], 0.054 in series [20], 0.07 in series [21] and 0.089 in series [22]. The AUC at 24 h in series [18] is 89.4 µM·h. In addition, the concentration at 24 h in [19] amounted to 3.73 µM.
`CC(C)(C)NC(=O)[C@@H]1C[C@@H]2CCCC[C@@H]2CN1C[C@@H](O)[C@H](Cc1ccccc1)NC(=O)[C@H](CC(N)=O)NC(=O)c1ccc2ccccc2n1`: in series [23], the concentration at 8 h turned out to be 1.21 µM. The IC50 in series [3] is greater than 133 µM; in series [4], 42 µM; in series [6], 59 µM. The compound further registered an AUC at 8 h in series [24] of 9.69 µM·h.

For orientation: AUC means the area under the concentration-time curve, a measure of exposure. What is called IC50 is the point on the concentration scale where inhibition reaches its midpoint.
